In data set [1] the test system is IAV Jena/8178/2009 (8178/09). The data set is described as follows: microbe, parasite or virus in culture. The data set is classed as cell-based, Influenza A virus. As to conditions: Influenza A virus, MDCK, 48 h; read-out: IC50 of CPE IAV 8178/09.
Data set [2] addresses influenza virus A/WSN/33 NA (Influenza A virus, UniProt P03470). The data set is described as follows: biochemical.
For data set [3], the system named is human erythrocytes.
Data set [4] has as its system human erythrocytes. The source holds these as a separate data set.
The nature of data set [5]: in vitro. The conditions noted are these: dog.
Data set [6] in a line: in vitro. As to conditions: human.
The subject of data set [7] is human erythrocytes. The data set is described as follows: Interference with hemagglutination in the viral HA assay.
In data set [8] the test system is NA of S. pneumoniae DSM20566 (precipitated bacterial proteins). The data set is described as follows: Hemagglutination (HA)-based NA inhibition assay, bacterial. Format: biochemical, Streptococcus pneumoniae. As to conditions: pure compounds; total protein of DSM20566; human erythrocytes; highest tested 100 μM. From the text: Inhibition of pneumococcal NAs circumvents hemagglutination.

Another data set deals with influenza virus A/WSN/33. In words: microbe, parasite or virus in culture. The conditions noted are these: WSN, MDCK, read-out: IC50 of CPE assay (A/WSN/33). Format: cell-based.
The mark [9] stands for this setting: pure compounds, human erythrocytes, 2 h at 4 °C.

In brackets after ≈: the same amount, converted by molar mass. Where two headings read alike, the source gives them in different places.

Chain of influenza virus A/WSN/33 NA (P03470 whole entry, looked up): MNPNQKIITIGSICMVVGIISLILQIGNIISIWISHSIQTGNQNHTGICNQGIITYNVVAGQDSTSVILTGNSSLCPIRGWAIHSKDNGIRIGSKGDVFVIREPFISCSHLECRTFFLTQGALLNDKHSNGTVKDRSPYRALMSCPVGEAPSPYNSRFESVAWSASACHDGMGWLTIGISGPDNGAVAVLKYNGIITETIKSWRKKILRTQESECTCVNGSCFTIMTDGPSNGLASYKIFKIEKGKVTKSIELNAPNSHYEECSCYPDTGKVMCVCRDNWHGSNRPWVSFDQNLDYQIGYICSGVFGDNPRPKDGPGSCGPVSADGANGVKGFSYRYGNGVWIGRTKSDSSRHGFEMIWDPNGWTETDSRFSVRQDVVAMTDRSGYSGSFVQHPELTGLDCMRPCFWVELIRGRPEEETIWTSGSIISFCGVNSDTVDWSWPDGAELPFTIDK

As to `CC(C)=CC[C@]12Oc3cc(O)c([C@H]4C=C(C)C[C@H](c5ccc(O)cc5O)[C@H]4C(=O)c4ccc(O)cc4O)c(O)c3C(=O)[C@@]1(O)Oc1cc(O)ccc12` [Compound 2, sanggenon C], the figures for the IC50 in [1] and in data set [2] were 8.3 ± 0.7 µM and 9.18 ± 1.5 µM, respectively. Besides, the “sample concentrations provoking induction of erythrocyte lysis in viral HA assay” value with human erythrocytes [3] (human) was 10 to 100 µM. In the data set on human erythrocytes [4] (human), the “sample concentrations provoking induction of erythrocyte lysis in bacterial HA assay” value lay within 31.6 to 100 µM. For the same molecule, the CC50 is 51.7 ± 12.2 µM in “in vitro [5]” and 32.6 ± 9.07 µM in the data set “in vitro [6]”. The “sample concentrations provoking prevention of virus-induced hemagglutination in viral HA assay” value in the data set with human erythrocytes [7] was in the range of 3.1 to 100 µM.
For the molecule `O=c1c(O)c(-c2ccc(O)cc2O)oc2cc(O)cc(O)c12` [Compound 16, morin], in data set [8], the “MIC in HA assay against S. pneumoniae DSM20566” value (shortened to “MIC in HA assay”) amounted to 23.0 ± 11.8 µM (≈ 6.95 µg/mL). The IC50 in data set [1] is 70.1 ± 9.83 µM; in [2], 62 ± 8.03 µM; in the data set on influenza virus A/WSN/33 it was over 100 µM. Besides, the “sample concentrations provoking induction of erythrocyte lysis in viral HA assay” value in the data set on human erythrocytes [3] is “no”. Moreover, in the data set on human erythrocytes [4], the “sample concentrations provoking induction of erythrocyte lysis in bacterial HA assay” value was “no”. Moreover, the CC50 at 72 h in “in vitro [5]” and in the data set “in vitro [6]” was over 100 µM each time. Besides, in the data set on human erythrocytes [7], the “sample concentrations provoking prevention of virus-induced hemagglutination in viral HA assay” value was “no”.
In the case of `O=C1CC(c2ccc(O)cc2O)Oc2cc(O)cc(O)c21` (stereo not drawn) [Compound 12, 2',4',5,7-tetrahydroxyflavanone], in [8], the “MIC in HA assay” value worked out at 72.6 ± 37.5 µM (≈ 20.9 µg/mL). Further, the IC50 in data set [1] was over 100 µM; in data set [2] it was 77.7 ± 5.56 µM; in the data set with influenza virus A/WSN/33, 81.3 ± 10.4 µM. The “sample concentrations provoking induction of erythrocyte lysis in viral HA assay” value with human erythrocytes [3] is reported as “no”. For the same molecule, the “sample concentrations provoking induction of erythrocyte lysis in bacterial HA assay” value in the data set on human erythrocytes [4] is recorded as “no”. Besides, the CC50 at 72 h in the data set “in vitro [5]” and in “in vitro [6]” was over 100 µM each time. Besides, the “sample concentrations provoking prevention of virus-induced hemagglutination in viral HA assay” value in the data set on human erythrocytes [7] is reported as “no”.
In the case of `CC(C)=CCC12Oc3cc(O)c(C4=CC5(C)CC(C4)c4ccc(O)cc4O5)c(O)c3C(=O)C1(O)Oc1cc(O)ccc12` (stereo not drawn) [Compound 1, sanggenon B], the “MIC in HA assay” value in data set [8] is 31.6 ± 0.00 µM (≈ 18 µg/mL). The IC50 in [2] stood at 31.2 ± 10.1 µM. Also, the “sample concentrations provoking induction of erythrocyte lysis in viral HA assay” value in the data set on human erythrocytes [3] (human) is reported as 100 or no. In the data set with human erythrocytes [4] (human), the “sample concentrations provoking induction of erythrocyte lysis in bacterial HA assay” value was determined as 100 µM. The CC50 in “in vitro [5]” stood at 28.1 ± 7.26 µM; in the data set “in vitro [6]”, 32 ± 9.16 µM. Further, the “sample concentrations provoking prevention of virus-induced hemagglutination in viral HA assay” value in the data set with human erythrocytes [7] came out at 31.6 µM.
On to `COc1cc([C@H]2Oc3cc([C@H]4Oc5cc(O)cc(O)c5C(=O)[C@@H]4O)ccc3O[C@@H]2CO)ccc1O` (racemic) [Compound 17, (±)-silybin], for which the values for the IC50 (in [1]; in data set [2]; in the data set with influenza virus A/WSN/33) were over 100 µM, 9.18 ± 1.5 µM and over 100 µM, respectively. Moreover, the “sample concentrations provoking induction of erythrocyte lysis in viral HA assay” value in the data set on human erythrocytes [3] was “no”. For the same molecule, the “sample concentrations provoking induction of erythrocyte lysis in bacterial HA assay” value with human erythrocytes [4] is listed as “no”. For the same molecule, the CC50 at 72 h in the data set “in vitro [5]” and in “in vitro [6]” was over 100 µM each time. For the same molecule, the “sample concentrations provoking prevention of virus-induced hemagglutination in viral HA assay” value in the data set on human erythrocytes [7] (setting [9]) is given as “no”.
As to `COc1ccc(C2CC(=O)c3c(O)cc(O)cc3O2)cc1O` (racemic) [Compound 10, (±)-hesperetin], the IC50 (in data set [1]; in data set [2]; in the data set on influenza virus A/WSN/33) was over 100 µM each time. The “sample concentrations provoking induction of erythrocyte lysis in viral HA assay” value with human erythrocytes [3] was “no”. For the same molecule, the “sample concentrations provoking induction of erythrocyte lysis in bacterial HA assay” value with human erythrocytes [4] is given as “no”. The CC50 in the data set “in vitro [5]” and in the data set “in vitro [6]” was over 100 µM throughout. For the same molecule, the “sample concentrations provoking prevention of virus-induced hemagglutination in viral HA assay” value with human erythrocytes [7] is given as “no”.
For the molecule `CC(C)=CCc1c(O)c(CC=C(C)C)c2[nH]c3c(O)cccc3c(=O)c2c1O` [Compound 34, atalphylline], in data set [8], the “MIC in HA assay” value was determined as 17.2 ± 12.5 µM (≈ 6.53 µg/mL). This molecule returned an IC50 in [2] of over 100 µM. In addition, in the data set with human erythrocytes [3], the “sample concentrations provoking induction of erythrocyte lysis in viral HA assay” value is “no”. Also, the “sample concentrations provoking induction of erythrocyte lysis in bacterial HA assay” value with human erythrocytes [4] is listed as “no”. In addition, the CC50 in the data set “in vitro [5]” was 0.63 ± 0.04 µM; in “in vitro [6]”, 60.4 ± 16.8 µM. Besides, the “sample concentrations provoking prevention of virus-induced hemagglutination in viral HA assay” value in the data set with human erythrocytes [7] is on record as “no”.
On to `CC(C)=CCc1cc(C2CC(=O)c3ccc(O)cc3O2)ccc1O` (racemic) [Compound 18, (±)-abyssinone II], for which the values for the IC50 (in [1]; in data set [2]; with influenza virus A/WSN/33) were 25.9 ± 3.67 µM, over 100 µM and 11.4 ± 3 µM, respectively. Also, the “sample concentrations provoking induction of erythrocyte lysis in viral HA assay” value with human erythrocytes [3] is listed as “no”. In addition, in the data set on human erythrocytes [4], the “sample concentrations provoking induction of erythrocyte lysis in bacterial HA assay” value is reported as “no”. Moreover, the CC50 at 72 h was 59.2 ± 15 µM in “in vitro [5]” and over 100 µM in the data set “in vitro [6]”. The “sample concentrations provoking prevention of virus-induced hemagglutination in viral HA assay” value in the data set with human erythrocytes [7] is reported as “no”.
As to `CC(C)=CCC/C(C)=C/Cc1c(O)cc2c(c1O)C(=O)CC(c1ccc(O)c(O)c1)O2` (stereo not drawn) [Compound 25], the “MIC in HA assay” value in data set [8] was 14.3 ± 9.66 µM (≈ 6.07 µg/mL). Moreover, in [2], the IC50 turned out to be 41.4 ± 6.98 µM. Further, in the data set on human erythrocytes [3] (human), the “sample concentrations provoking induction of erythrocyte lysis in viral HA assay” value was 100 or no. In addition, the “sample concentrations provoking induction of erythrocyte lysis in bacterial HA assay” value in the data set with human erythrocytes [4] (human) worked out at 100 µM. Moreover, the CC50 at 72 h in “in vitro [5]” was 55.8 ± 4.41 µM; in “in vitro [6]”, over 100 µM. Besides, the “sample concentrations provoking prevention of virus-induced hemagglutination in viral HA assay” value in the data set with human erythrocytes [7] was determined as 31.6 µM.
In the case of `COc1c(O)cc2c(c1O)C(=O)CC(c1ccccc1)O2` (stereo not drawn) [Compound 8, 2,3-dihydro-5,7-dihydroxy-6-methoxy-2-phenyl-4H-1-benzopyran-4-one], the IC50 (in [1]; in data set [2]; with influenza virus A/WSN/33) was over 100 µM in each case. Moreover, the “sample concentrations provoking induction of erythrocyte lysis in viral HA assay” value in the data set on human erythrocytes [3] is “no”. Moreover, in the data set with human erythrocytes [4], the “sample concentrations provoking induction of erythrocyte lysis in bacterial HA assay” value was “no”. Moreover, the CC50 at 72 h in “in vitro [5]” and in the data set “in vitro [6]” was over 100 µM each time. The “sample concentrations provoking prevention of virus-induced hemagglutination in viral HA assay” value in the data set on human erythrocytes [7] (setting [9]) is reported as “no”.
For `CC(C)=CCc1c(O)c(CC=C(C)C)c2occ(-c3ccc(O)cc3)c(=O)c2c1O` [Compound 30, 6,8-diprenylgenistein], the “MIC in HA assay” value in data set [8] was 10.0 ± 0.00 µM (≈ 4.06 µg/mL). The molecule also showed an IC50 in data set [2] of 62.5 ± 5.4 µM. Further, the “sample concentrations provoking induction of erythrocyte lysis in viral HA assay” value with human erythrocytes [3] is recorded as “no”. The “sample concentrations provoking induction of erythrocyte lysis in bacterial HA assay” value with human erythrocytes [4] (human) fell in the range of 31.6 to 100 µM. Besides, the CC50 at 72 h stood at 21.1 ± 0.91 µM in the data set “in vitro [5]” and 48.8 ± 16 µM in “in vitro [6]”. The “sample concentrations provoking prevention of virus-induced hemagglutination in viral HA assay” value in the data set on human erythrocytes [7] was 10 to 100 µM.
As to `CC(C)=CCc1c(O)cc(O)c2c1O[C@@H](c1ccc(O)cc1)[C@H](O)C2=O` (relative stereo) [Compound 23, (2R,3R)-rel-4H-2,3-dihydro-3,5,7-trihydroxy-2-(4-hydroxyphenyl)-8-(3-methyl-2-buten-1-yl)-1-benzopyran-4-one], the “MIC in HA assay” value in data set [8] was 31.6 ± 0.00 µM (≈ 11.3 µg/mL). Moreover, the IC50 was found to be 24.7 ± 4.55 µM in [1] and 27 ± 3.24 µM in data set [2]. Also, the “sample concentrations provoking induction of erythrocyte lysis in viral HA assay” value with human erythrocytes [3] is recorded as “no”. For the same molecule, the “sample concentrations provoking induction of erythrocyte lysis in bacterial HA assay” value in the data set on human erythrocytes [4] is given as “no”. The CC50 at 72 h in “in vitro [5]” was 69 ± 3.56 µM; in the data set “in vitro [6]”, over 100 µM. In addition, the “sample concentrations provoking prevention of virus-induced hemagglutination in viral HA assay” value with human erythrocytes [7] is reported as “no”.
